Results published in ChEMBL document CHEMBL1127914, “Pseudopeptide inhibitors of aminopeptidases containing the [CH(CN)NH] surrogate as a transition-state MIMIC” (Bioorg Med Chem Lett, 1994).
Residues, ends and D or L forms follow the SMILES beside them.

Key:
[1] = target: T1, Aminopeptidase B (Mus musculus, UniProt Q8VCT3); experiment: Inhibition of Aminopeptidase B in murine L-cells by Aoyagi method.
T1 sequence (Q8VCT3 whole entry): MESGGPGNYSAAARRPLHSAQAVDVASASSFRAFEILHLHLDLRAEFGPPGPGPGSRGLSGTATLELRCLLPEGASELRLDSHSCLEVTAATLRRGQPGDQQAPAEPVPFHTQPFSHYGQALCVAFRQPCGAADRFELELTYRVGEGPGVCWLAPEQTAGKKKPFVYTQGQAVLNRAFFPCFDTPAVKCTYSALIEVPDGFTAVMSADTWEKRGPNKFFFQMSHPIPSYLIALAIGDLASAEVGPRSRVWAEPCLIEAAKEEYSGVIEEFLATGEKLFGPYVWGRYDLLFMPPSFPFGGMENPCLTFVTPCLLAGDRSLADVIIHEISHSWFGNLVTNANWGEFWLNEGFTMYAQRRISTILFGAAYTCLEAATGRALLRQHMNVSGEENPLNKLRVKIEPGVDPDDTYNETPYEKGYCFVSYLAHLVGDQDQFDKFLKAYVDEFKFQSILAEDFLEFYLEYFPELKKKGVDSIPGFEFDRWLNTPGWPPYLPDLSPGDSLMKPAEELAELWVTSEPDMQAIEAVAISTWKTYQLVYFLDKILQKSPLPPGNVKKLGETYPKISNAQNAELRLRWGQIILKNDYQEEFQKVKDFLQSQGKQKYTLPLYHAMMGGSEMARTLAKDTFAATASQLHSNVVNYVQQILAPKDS

[2] = target: T2, Aminopeptidase N (Homo sapiens, UniProt P15144); experiment: Inhibition of Aminopeptidase M.
T2 sequence (P15144 whole entry): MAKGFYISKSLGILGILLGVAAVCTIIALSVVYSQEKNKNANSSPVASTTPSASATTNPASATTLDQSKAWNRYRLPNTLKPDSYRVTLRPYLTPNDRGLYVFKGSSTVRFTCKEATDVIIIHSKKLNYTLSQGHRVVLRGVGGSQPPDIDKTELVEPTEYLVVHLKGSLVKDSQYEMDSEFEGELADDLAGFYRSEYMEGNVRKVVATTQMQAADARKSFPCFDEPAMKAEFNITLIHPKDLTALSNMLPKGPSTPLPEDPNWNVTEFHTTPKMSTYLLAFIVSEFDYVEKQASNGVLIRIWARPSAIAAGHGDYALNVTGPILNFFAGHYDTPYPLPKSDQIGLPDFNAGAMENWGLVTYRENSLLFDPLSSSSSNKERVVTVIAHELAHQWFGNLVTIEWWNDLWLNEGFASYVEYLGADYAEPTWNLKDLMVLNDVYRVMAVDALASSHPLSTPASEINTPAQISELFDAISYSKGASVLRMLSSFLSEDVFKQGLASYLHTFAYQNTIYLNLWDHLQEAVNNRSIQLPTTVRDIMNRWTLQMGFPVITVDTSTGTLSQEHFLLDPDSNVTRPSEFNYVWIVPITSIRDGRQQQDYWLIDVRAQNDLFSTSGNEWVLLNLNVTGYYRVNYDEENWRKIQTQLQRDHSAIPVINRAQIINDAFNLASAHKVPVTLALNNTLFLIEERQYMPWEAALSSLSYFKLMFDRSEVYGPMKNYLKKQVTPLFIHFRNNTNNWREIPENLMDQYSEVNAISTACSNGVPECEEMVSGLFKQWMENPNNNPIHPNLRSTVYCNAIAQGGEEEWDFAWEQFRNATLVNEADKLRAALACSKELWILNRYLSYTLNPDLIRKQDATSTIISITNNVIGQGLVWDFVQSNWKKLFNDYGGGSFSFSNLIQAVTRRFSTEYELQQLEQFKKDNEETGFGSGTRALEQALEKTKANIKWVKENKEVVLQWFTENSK

[3] = target: T1, Aminopeptidase B; experiment: Concentration required for inhibitory potency against Aminopeptidase B in murine L-cells by aoyagi method using L-lysine-2-naphthylamide hydrochloride as substrate (0.5mM, Km=0.9*10e-4 M)
[4] = target: T2, Aminopeptidase N; experiment: Concentration required for inhibitory potency on Aminopeptidase M using L-leucine-2-naphthylamide hydrochloride as substrate(0.5 mM, Km=0.6*10e-4 M)

IC50 [1] [µM]	IC50 [2] [µM]	IC50 [3] [µM]	IC50 [4] [µM]	SMILES
50				COC(=O)[C@H](CC(C)C)NC(C#N)[C@@H](N)Cc1ccccc1 (some centres not stated)
293				COC(=O)[C@H](Cc1ccccc1)N[C@H](C#N)[C@@H](N)Cc1ccccc1
28				COC(=O)[C@@H]1CCCN1C(=O)[C@H](CC(C)C)N[C@@H](C#N)[C@@H](N)Cc1ccccc1
1000	1000			COC(=O)[C@@H](NC(C#N)[C@H](Cc1ccccc1)NC(=O)OC(C)(C)C)C(C)C (some centres not stated)
36				COC(=O)[C@@H](NC(C#N)[C@@H](N)Cc1ccccc1)C(C)C (some centres not stated)
44				COC(=O)[C@H](CCCCN)NC(C#N)[C@@H](N)Cc1ccccc1 (some centres not stated)
221				COC(=O)[C@H](Cc1ccccc1)N[C@@H](C#N)[C@@H](N)Cc1ccccc1
1000	1000			CC(C)C[C@H](NC(=O)[C@@H](N)Cc1ccccc1)C(=O)O (H-Phe-Leu-OH)
824	793			COC(=O)[C@@H]1CCCN1C(=O)[C@H](CC(C)C)NC(=O)[C@@H](N)Cc1ccccc1 (H-Phe-Leu-Pro-OMe)
1000	1000			COC(=O)[C@H](CC(C)C)NC(C#N)[C@H](Cc1ccccc1)NC(=O)OC(C)(C)C (mixture of isomers)
1000	1000			COC(=O)[C@H](CCCCN)NC(C#N)[C@H](Cc1ccccc1)NC(=O)OC(C)(C)C (mixture of isomers)
1000	1000			COC(=O)C1CCCN1C(=O)[C@H](CC(C)C)NC(C(N)=O)[C@@H](N)Cc1ccccc1 (single isomer, unassigned) [listing 1 of 2 here]
		1000	783	COC(=O)C1CCCN1C(=O)[C@H](CC(C)C)NC(C(N)=O)[C@@H](N)Cc1ccccc1 (single isomer, unassigned) [listing 2 of 2 here]
1000	1000			COC(=O)[C@H](CC(C)C)NC(C(N)=O)[C@@H](N)Cc1ccccc1 (single isomer, unassigned)
14				COC(=O)C1CCCN1C(=O)[C@H](CC(C)C)NC(C#N)[C@@H](N)Cc1ccccc1 (single isomer, unassigned)
1000	1000			COC(=O)C1CCCN1C(=O)[C@H](CC(C)C)NC(C#N)[C@H](Cc1ccccc1)NC(=O)OC(C)(C)C (single isomer, unassigned; form 1)
1000	1000			COC(=O)[C@H](Cc1ccccc1)NC(C#N)[C@H](Cc1ccccc1)NC(=O)OC(C)(C)C (single isomer, unassigned; form 1)
1000	1000			COC(=O)C1CCCN1C(=O)[C@H](CC(C)C)NC(C#N)[C@H](Cc1ccccc1)NC(=O)OC(C)(C)C (single isomer, unassigned; form 2)
1000	1000			COC(=O)[C@H](Cc1ccccc1)NC(C#N)[C@H](Cc1ccccc1)NC(=O)OC(C)(C)C (single isomer, unassigned; form 2)
6				CC(C)C[C@H](NC(=O)[C@@H](O)[C@H](N)Cc1ccccc1)C(=O)O [UBENIMEX]
